Source: ChEMBL document CHEMBL1201862, “PubChem BioAssay data set” (2004)
The source made the active and inactive calls.

Experiments:
[1] = molecular target: T1, Calpain-2 catalytic subunit (Sus scrofa, UniProt P43367); assay: m-calpain protease blockers, concentration series – biochemical, fluorogenic peptide substrate, dose response (AID 1420); type: functional
T1 sequence (P43367 whole entry): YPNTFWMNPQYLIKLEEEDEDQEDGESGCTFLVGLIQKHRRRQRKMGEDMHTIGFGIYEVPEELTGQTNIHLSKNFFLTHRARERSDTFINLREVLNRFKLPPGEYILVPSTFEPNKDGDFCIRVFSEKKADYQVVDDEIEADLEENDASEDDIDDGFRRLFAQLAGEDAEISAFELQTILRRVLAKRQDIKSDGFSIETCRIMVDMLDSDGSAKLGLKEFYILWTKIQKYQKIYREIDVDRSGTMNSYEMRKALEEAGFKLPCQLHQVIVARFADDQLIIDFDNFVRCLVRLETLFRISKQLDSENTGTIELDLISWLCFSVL

[2] = molecular target: FAD-linked sulfhydryl oxidase ALR (Homo sapiens, UniProt P55789); assay: ALR-catalysed DTT oxidation blockers – biochemical, H2O2 detection, luminescence, cherry-pick, dose response (AID 493248)
Chain of FAD-linked sulfhydryl oxidase ALR (P55789 whole entry): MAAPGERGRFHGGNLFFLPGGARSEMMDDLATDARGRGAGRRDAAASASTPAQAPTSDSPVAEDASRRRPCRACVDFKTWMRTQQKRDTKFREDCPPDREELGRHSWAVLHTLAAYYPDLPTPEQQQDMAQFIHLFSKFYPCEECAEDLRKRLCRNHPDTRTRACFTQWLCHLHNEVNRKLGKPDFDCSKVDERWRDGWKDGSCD

[3] = molecular target: T2, Replicative DNA helicase DnaB (Mycobacterium tuberculosis, UniProt P9WMR3); assay: DnaB intein splicing inhibitors, dose response, biochemical, cell-free fluorescence (AID 449749); type: functional
T2 sequence (P9WMR3 whole entry): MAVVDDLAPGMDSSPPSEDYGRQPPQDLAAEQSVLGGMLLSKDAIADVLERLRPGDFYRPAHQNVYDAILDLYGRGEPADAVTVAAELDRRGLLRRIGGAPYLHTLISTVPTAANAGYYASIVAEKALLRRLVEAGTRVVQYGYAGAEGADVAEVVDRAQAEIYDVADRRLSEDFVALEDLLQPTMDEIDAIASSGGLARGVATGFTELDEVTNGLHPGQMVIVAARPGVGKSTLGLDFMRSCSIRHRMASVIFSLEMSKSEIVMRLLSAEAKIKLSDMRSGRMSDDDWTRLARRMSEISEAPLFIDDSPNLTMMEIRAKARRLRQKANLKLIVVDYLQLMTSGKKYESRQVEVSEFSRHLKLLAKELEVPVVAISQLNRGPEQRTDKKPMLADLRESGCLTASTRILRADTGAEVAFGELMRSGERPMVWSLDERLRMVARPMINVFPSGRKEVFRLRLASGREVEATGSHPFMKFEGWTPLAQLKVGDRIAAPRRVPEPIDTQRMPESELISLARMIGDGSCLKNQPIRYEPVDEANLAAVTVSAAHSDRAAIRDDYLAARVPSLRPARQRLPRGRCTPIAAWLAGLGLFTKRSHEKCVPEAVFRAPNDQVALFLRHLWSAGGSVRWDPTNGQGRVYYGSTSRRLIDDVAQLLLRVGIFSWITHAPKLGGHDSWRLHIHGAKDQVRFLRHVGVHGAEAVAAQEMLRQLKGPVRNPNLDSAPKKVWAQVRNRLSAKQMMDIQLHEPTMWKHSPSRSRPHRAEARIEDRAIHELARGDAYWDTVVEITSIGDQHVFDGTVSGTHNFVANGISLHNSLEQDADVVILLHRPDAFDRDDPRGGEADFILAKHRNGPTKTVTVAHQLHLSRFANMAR

Protein RecA = molecular target: T3, Protein RecA (Mycobacterium tuberculosis, UniProt P9WHJ3); assay: Fluorescence Cell-Free Homogeneous Dose Retest to Identify Inhibitors of RecA-Intein Splicing Activity. [Related pubchem assays (depositor defined):AID2097, AID2223, AID489010, AID492950]; type: functional
T3 sequence (P9WHJ3 whole entry): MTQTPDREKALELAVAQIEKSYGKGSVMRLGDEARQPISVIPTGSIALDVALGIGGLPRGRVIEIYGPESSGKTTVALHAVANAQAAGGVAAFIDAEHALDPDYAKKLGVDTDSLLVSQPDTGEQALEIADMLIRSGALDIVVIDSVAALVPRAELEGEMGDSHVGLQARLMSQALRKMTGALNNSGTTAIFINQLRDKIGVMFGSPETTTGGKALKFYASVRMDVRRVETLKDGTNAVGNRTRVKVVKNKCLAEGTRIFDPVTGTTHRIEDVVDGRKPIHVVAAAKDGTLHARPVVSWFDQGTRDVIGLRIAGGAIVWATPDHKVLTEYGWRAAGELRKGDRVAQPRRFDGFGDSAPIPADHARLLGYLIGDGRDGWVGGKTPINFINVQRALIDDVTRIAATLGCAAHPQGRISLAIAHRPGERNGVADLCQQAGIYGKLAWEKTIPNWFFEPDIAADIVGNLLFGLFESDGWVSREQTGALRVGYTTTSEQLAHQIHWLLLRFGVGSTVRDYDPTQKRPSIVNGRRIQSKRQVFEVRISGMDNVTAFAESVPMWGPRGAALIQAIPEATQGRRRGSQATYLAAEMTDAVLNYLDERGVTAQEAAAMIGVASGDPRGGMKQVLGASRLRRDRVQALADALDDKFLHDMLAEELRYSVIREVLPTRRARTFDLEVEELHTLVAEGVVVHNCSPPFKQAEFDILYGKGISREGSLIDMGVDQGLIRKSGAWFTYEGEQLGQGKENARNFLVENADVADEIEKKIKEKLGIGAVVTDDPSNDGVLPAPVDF

[4] = molecular target: T4, Corticotropin-releasing factor receptor 2/Corticotropin-releasing factor-binding protein (Homo sapiens, UniProt P24387+Q13324); assay: Dose Response confirmation of uHTS hits for small molecule antagonists of the CRF-binding protein and CRF-R2 receptor complex.; type: functional; conditions: read-out: IC50_Mean
T4 sequence (Q13324 whole entry): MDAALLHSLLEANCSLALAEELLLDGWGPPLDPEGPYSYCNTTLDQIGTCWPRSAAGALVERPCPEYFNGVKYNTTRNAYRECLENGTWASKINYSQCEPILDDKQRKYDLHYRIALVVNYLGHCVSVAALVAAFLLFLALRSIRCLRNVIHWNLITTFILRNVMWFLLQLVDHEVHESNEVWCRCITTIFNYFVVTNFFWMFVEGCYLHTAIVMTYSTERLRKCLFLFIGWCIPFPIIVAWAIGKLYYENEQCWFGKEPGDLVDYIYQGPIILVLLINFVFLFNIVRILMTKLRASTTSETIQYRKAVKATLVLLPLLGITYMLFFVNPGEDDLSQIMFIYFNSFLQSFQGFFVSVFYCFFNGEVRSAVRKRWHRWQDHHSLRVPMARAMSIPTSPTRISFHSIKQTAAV
T4 sequence (P24387 whole entry): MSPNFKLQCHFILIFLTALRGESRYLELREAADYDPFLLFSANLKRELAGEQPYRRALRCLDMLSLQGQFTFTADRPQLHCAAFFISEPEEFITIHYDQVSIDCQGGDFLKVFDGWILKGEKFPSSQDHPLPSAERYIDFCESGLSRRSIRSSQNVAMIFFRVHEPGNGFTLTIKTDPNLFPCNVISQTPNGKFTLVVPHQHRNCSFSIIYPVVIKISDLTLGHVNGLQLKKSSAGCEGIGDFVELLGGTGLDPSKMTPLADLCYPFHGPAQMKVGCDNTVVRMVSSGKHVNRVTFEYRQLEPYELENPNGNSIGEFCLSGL

[5] = molecular target: T4, Corticotropin-releasing factor receptor 2/Corticotropin-releasing factor-binding protein; assay: activators of CRF receptor 2 with binding protein – uHTS hits, confirmation (AID 602473); type: functional; conditions: read-out: EC50_Mean
[6] = molecular target: T5, Heat shock factor protein 1 (Mus musculus, UniProt P38532); assay: enhancement of HSF1-driven luciferase signal – cell-based, NIH3T3, luminescence, dose retest, confirmation (AID 435004); type: functional;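 further: stress induced by proteasome inhibitor MG132 added 30 min after compound; luciferase reporter driven by HSF1 response element in NIH3T3 cells; actives raise luminescence as potentiators of the MG132 stress response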
T5 sequence (P38532 whole entry): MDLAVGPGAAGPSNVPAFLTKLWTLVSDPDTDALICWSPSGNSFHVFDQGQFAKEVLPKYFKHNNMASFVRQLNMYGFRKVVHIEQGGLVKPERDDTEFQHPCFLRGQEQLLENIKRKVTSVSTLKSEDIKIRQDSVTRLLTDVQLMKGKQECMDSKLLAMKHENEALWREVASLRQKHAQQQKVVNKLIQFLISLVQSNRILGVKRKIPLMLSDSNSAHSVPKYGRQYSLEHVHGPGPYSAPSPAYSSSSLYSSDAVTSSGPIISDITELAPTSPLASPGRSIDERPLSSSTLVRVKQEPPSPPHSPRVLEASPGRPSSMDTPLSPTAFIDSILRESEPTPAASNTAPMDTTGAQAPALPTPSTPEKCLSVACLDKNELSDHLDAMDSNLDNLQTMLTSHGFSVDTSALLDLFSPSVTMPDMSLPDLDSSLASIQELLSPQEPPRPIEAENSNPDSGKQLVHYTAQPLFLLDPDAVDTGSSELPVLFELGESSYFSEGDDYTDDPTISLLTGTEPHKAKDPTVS

cells [7] = type: functional, cell-based
cells [8] = type: functional, cell-based; remark: listed apart in the source
H4 = assay: Luminescence Cell-Based Dose Response HTS to Identify Activators of 5'UTR Stem-Loop Driven Prion Protein mRNA Translation in H4 Neuroglioblastoma Cells. [Related pubchem assays: 1829 (Project Summary), 1814 (Primary HTS)]; type: functional; conditions: Homo sapiens
Paired box protein Pax-8 = Paired box protein Pax-8 (Homo sapiens, UniProt Q06710); assay: PAX8 transcriptional activity inhibition in RMG-I – RMG-I cells, luciferase, cherry-pick, dose response (AID 687027); type: functional, cell-based;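 further: luciferase reporter driven by Pax8 target thyroperoxidase promoter measured by SteadyGlo luminescence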
Chain of Paired box protein Pax-8 (Q06710 whole entry): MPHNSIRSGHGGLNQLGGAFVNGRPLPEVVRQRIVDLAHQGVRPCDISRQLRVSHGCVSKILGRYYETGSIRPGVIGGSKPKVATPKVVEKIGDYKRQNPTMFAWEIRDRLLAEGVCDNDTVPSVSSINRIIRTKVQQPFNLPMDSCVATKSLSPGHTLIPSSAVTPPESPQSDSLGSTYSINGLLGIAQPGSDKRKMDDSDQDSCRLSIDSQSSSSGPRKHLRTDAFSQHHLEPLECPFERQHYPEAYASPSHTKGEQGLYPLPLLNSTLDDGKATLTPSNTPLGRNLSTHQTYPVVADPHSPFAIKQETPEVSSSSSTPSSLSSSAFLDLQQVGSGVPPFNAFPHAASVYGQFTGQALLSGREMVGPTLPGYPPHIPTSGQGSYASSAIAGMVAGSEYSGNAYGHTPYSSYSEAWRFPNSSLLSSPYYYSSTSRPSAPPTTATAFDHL

[9] = Luminescence Cell-Based Dose Retest to Confirm Inhibitors of Cancer Stem Cells. [Related pubchem assays (depositor defined):AID2717, AID2721]; type: functional; conditions: Homo sapiens
INS1 = assay: INS-1E survival protection against cytokine death – cell-based, luminescence, retest, dose response (AID 449756); type: functional; conditions: Rattus norvegicus;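 further: cell death triggered by IL-1 beta plus TNF-alpha plus IFN-gamma mixture; protective hits raise ATP signal compared with cytokine alone wells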
[10] = molecular target: Luciferin 4-monooxygenase (Photinus pyralis, UniProt P08659); assay: inhibition of purified Photinus pyralis luciferase – biochemical, luminescence, dose response (AID 1891)
Chain of Luciferin 4-monooxygenase (P08659 whole entry): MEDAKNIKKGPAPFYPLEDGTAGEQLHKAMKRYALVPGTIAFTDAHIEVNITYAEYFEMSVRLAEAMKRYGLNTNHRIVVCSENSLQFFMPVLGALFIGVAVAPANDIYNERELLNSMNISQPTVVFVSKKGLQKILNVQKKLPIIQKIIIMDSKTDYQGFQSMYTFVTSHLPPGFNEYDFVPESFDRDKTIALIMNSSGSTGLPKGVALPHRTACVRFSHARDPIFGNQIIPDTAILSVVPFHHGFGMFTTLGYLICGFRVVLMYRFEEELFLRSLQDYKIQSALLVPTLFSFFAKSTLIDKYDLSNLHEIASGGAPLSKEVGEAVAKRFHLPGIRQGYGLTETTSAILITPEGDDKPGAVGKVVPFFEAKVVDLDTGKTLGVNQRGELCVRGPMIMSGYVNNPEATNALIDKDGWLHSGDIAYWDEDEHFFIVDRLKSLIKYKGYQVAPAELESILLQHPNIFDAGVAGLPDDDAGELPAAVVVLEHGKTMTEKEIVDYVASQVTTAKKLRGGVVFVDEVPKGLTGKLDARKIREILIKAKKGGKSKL

[11] = Luminescence Cell-Based Dose Confirmation HTS to Identify Inhibitors of Platelet Dense Granule Release. [Related pubchem assays: 1663 (Primary HTS), 1678 (Summary of Project)]; type: functional
[12] = P. falciparum Dd2 growth inhibitors, dose response, SYBR Green, cherry-picked samples (AID 1159567); type: functional, cell-based

COc1ccc(Nc2c(-c3ccc(C)cc3)nc3cnccn23)cc1
IC50 [1]: > 50 µM (not active)
AC50 [2]: 0.763 µM (active)

COc1cccc(Nc2ccccc2C(=O)O)c1
AC50 [2]: 3.35 µM (active)

Cc1n[nH]c2c1C(c1ccoc1)C(C#N)=C(N)O2 (configuration not stated)
AC50 [3]: 5.36 µM (active)
EC50 (Protein RecA): 2.25 µM (active)

O=[N+]([O-])c1cccc2c([As](=O)(O)O)cccc12
AC50 [3]: 16.4 µM (active)
EC50 (Protein RecA): 10.1 µM (active)

CN(C)CCCNC(=O)c1ccccc1Oc1ccccc1
IC50 [4]: > 47.1 µM (inactive)
EC50 [5]: > 53 µM (inactive)

CN(C)c1ccc2nsnc2c1[N+](=O)[O-]
AC50 [3]: > 380 µM (inactive)
EC50 (Protein RecA): 8.64 µM (active)

NC(=O)NC(=O)C(Nc1ccc(N2CCCCC2)cc1)c1ccccc1 (configuration not stated)
AC50 [2]: 0.797 µM (active)

Cc1n[nH]c2c1C(c1cc(Br)cs1)C(C#N)=C(N)O2 (configuration not stated)
EC50 [6]: 14.6 µM (active)
AC50 [3]: 12.7 µM (active)
EC50 (Protein RecA): 6.13 µM (active)

COc1ccc(NC(=S)NCc2cccnc2)cc1
IC50 [4]: 9.74 µM (active)
EC50 [5]: > 53 µM (inactive)

COc1cccc(NC(=O)COC(=O)c2ccccc2C(=O)N2CCN(c3ccccc3)CC2)c1
IC50 [4]: > 47.1 µM (inactive)
EC50 [5]: > 53 µM (inactive)

COCc1nnc(NC(=O)c2cc(Cl)ccc2OC)s1
EC50 (cells [7]): > 350 µM (not active)
EC50 (cells [8]): > 350 µM (not active)

O=C(O)c1cccc2c3c([nH]c12)CCCC3
AC50 [2]: 5.66 µM (active)

N#Cc1c(NC(=O)c2ccccc2)sc2c1CCC2
EC50 (H4): 12.6 µM (active)

Cc1c(C(=O)NCc2cccnc2)oc2ccccc12
IC50 [4]: > 47.1 µM (inactive)
EC50 [5]: > 53 µM (inactive)

O=C(Nc1nc(-c2cccs2)c(-c2cccs2)s1)C1(c2ccccc2)CC1
AC50 (Paired box protein Pax-8): 51.1 µM (active)

COc1ccc(CN2CCNC(=O)C2CC(=O)N(C)CC2CCOCC2)cc1OC (configuration not stated)
EC50 (cells [7]): > 350 µM (not active)
EC50 (cells [8]): > 350 µM (not active)

O=C(c1c[nH]c2ccccc12)N1CCN(c2ccccc2)CC1
AC50 [2]: 4.16 µM (active)

CCc1ccc(S(=O)(=O)Nc2ccc(O)c3ccccc23)cc1
AC50 [9]: 5.13 µM (active)
AC50 [3]: 0.305 µM (active)
EC50 (Protein RecA): 0.0482 µM (active)
AC50 (INS1): 8.73 µM (active)

CCOC(=O)c1cc(S(=O)(=O)Nc2ccc(F)cc2F)cn1C
IC50 [4]: > 47.1 µM (inactive)
EC50 [5]: > 53 µM (inactive)

C[C@@H]1CCCCO[C@H](CN(C)Cc2ccc(Cl)c(Cl)c2)[C@H](C)CN([C@@H](C)CO)C(=O)c2cc(NC(=O)Nc3ccccc3)ccc2O1
AC50 (Paired box protein Pax-8): 8.42 µM (active)

COc1ccc(C(=O)Nc2ccccc2C(=O)N/N=C/c2cccc3ccccc23)cc1
EC50 (H4): > 120 µM (not active)
EC50 [10]: 1.35 µM (active)
EC50 [11]: 1.15 µM (active)

Cc1cccc(COc2ccc(/C=N/NC(=O)c3nnn(-c4nonc4N)c3COc3ccc(F)cc3)cc2)c1
EC50 (H4): 61.7 µM (active)

O=C(O)CCC(=O)NCCn1c(-c2ccccc2)cs/c1=N\c1ccccc1
EC50 [6]: > 260 µM (inactive)
AC50 [2]: 22.3 µM (active)

CC(C)NC(=O)N1[C@H](C#N)[C@H](c2ccc(-c3ccc(F)cc3)cc2)[C@@H]1CO
AC50 [12]: 4.17 µM (active)

C[C@H](CO)N1C[C@H](C)[C@H](CN(C)S(=O)(=O)c2ccccc2)Oc2ccc(NC(=O)Cc3cn(C)c4ccccc34)cc2C1=O
AC50 [12]: 3.2 µM (active)

CCCN(C)C[C@@H]1Oc2cc(C#CC3CCCC3)ccc2S(=O)(=O)N([C@@H](C)CO)C[C@@H]1C
AC50 [12]: 4.85 µM (active)

CNc1nc(Cl)nc(Nc2ccccc2)n1
IC50 [4]: > 47.1 µM (inactive)
EC50 [5]: > 53 µM (inactive)
